Laboratory results: ChEMBL document CHEMBL1201862, “PubChem BioAssay data set” (2004)
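96-well plates; 48 h exposure; 5 concentrations. Endpoints by linear interpolation between flanking doses. Not reached: highest tested concentration assigned. GI50 = concentration required for 50% inhibition of growth.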 The source made the active and inactive calls. Rule as the data show it: active = GI50 up to about 1.1 µM and inactive = higher.

Experiments:
Test in all cases: inhibition of tumour cell growth, NCI panel, 48 h
[1] = test system: 786-0
[2] = test system: A498
[3] = test system: A549
[4] = test system: ACHN
[5] = test system: BT-549
[6] = test system: CAKI-1
[7] = test system: CCRF-CEM
[8] = test system: COLO 205
[9] = test system: DU-145
[10] = test system: EKVX
[11] = test system: HCC 2998
[12] = test system: HCT-116
[13] = test system: HCT-15
[14] = test system: HL-60
[15] = test system: HOP-62
[16] = test system: HOP-92
[17] = test system: HT-29
[18] = test system: Hs-578T
[19] = test system: IGROV-1
[20] = test system: KM12
[21] = test system: LOX IMVI
[22] = test system: M14
[23] = test system: MCF7
[24] = test system: MDA-MB-231
[25] = test system: MDA-MB-435
[26] = test system: MDA-N
[27] = test system: MOLT-4
[28] = test system: Malme-3M
[29] = test system: NCI-H226
[30] = test system: NCI-H23
[31] = test system: NCI-H460
[32] = test system: NCI-H522
[33] = test system: NCI/ADR-RES
[34] = test system: OVCAR-4
[35] = test system: OVCAR-5
[36] = test system: OVCAR-8
[37] = test system: PC-3
[38] = test system: RXF 393
[39] = test system: SF-268
[40] = test system: SF-295
[41] = test system: SF-539
[42] = test system: SK-MEL-28
[43] = test system: SK-MEL-2
[44] = test system: SK-MEL-5
[45] = test system: SK-OV-3
[46] = test system: SN12C
[47] = test system: SNB-19
[48] = test system: SNB-75
[49] = test system: SW-620
[50] = test system: T47D
[51] = test system: TK-10
[52] = test system: U-251
[53] = test system: UACC-257
[54] = test system: UACC-62
[55] = test system: UO-31
[56] = test system: K562
[57] = test system: OVCAR-3

For CC1=C(C)C(=O)C(C2=CC(=O)C=CC2=O)=C(C2=CC(=O)C=CC2=O)C1=O, the GI50 [1] was 76.7 µM (inactive), the GI50 [2] was > 100 µM (inactive) and the GI50 [3] was 98.9 µM (inactive). The GI50 [4] was 59.4 µM (inactive), the GI50 [5] was 86.9 µM (inactive) and the GI50 [6] was 25.2 µM (inactive). For the same compound, the GI50 [7] was 14.1 µM (inactive), the GI50 [8] was 56 µM (inactive) and the GI50 [9] was > 100 µM (inactive). The GI50 [10] was > 54.1 µM (inactive), the GI50 [11] was > 100 µM (inactive) and the GI50 [12] was 31.8 µM (inactive). The GI50 [13] was 41 µM, the GI50 [14] was 14.9 µM (inactive) and the GI50 [15] was > 100 µM (inactive). For the same compound, the GI50 [16] was 36.4 µM (inactive), the GI50 [17] was > 72.6 µM (inactive) and the GI50 [18] was 45.4 µM (inactive). The GI50 [19] was 21.4 µM (inactive), the GI50 [20] was 64.4 µM (inactive) and the GI50 [21] was 26.7 µM (inactive). For the same compound, the GI50 [22] was > 76.9 µM (inactive), the GI50 [23] was 26.4 µM (inactive) and the GI50 [24] was 18.4 µM (inactive). For the same compound, the GI50 [25] was 27.9 µM (inactive), the GI50 [26] was 26.9 µM (inactive) and the GI50 [27] was 15.5 µM (inactive). The GI50 [28] was 66.1 µM (inactive), the GI50 [29] was > 100 µM (inactive) and the GI50 [30] was > 100 µM (inactive). The GI50 [31] was > 100 µM (inactive), the GI50 [32] was 21.2 µM (inactive) and the GI50 [33] was > 100 µM (inactive). The GI50 [34] was 20.6 µM (inactive), the GI50 [35] was > 58.9 µM (inactive) and the GI50 [36] was 36.6 µM (inactive). For the same compound, the GI50 [37] was 62.8 µM (inactive), the GI50 [38] was 41.9 µM (inactive) and the GI50 [39] was > 74.6 µM (inactive). For the same compound, the GI50 [40] was > 96.2 µM (inactive), the GI50 [41] was 27.3 µM (inactive) and the GI50 [42] was > 74 µM (inactive). For the same compound, the GI50 [43] was > 100 µM (inactive), the GI50 [44] was 21.3 µM (inactive) and the GI50 [45] was > 100 µM (inactive). The GI50 [46] was 31 µM (inactive), the GI50 [47] was > 100 µM (inactive) and the GI50 [48] was > 100 µM (inactive). For the same compound, the GI50 [49] was 28.4 µM (inactive), the GI50 [50] was 26.4 µM (inactive) and the GI50 [51] was > 100 µM (inactive). For the same compound, the GI50 [52] was 32.7 µM (inactive), the GI50 [53] was > 67.1 µM (inactive) and the GI50 [54] was 39.6 µM (inactive). The GI50 [55] was 41.7 µM (inactive).

CC(C)C(NC(=O)Oc1ccccc1)C(=O)NC1c2c(Br)sc(Br)c2C(=O)C1O (centres undefined) was tested, and the GI50 [1] was 8.79 µM (inactive), the GI50 [2] was > 25 µM (inactive) and the GI50 [3] was > 25 µM (inactive). For the same compound, the GI50 [4] was 5.56 µM (inactive), the GI50 [5] was 3.67 µM (inactive) and the GI50 [6] was 6.81 µM (inactive). The GI50 [7] was 7.62 µM (inactive), the GI50 [8] was 7.29 µM (inactive) and the GI50 [9] was 9.4 µM (inactive). For the same compound, the GI50 [10] was 6.4 µM (inactive), the GI50 [11] was 4.2 µM (inactive) and the GI50 [12] was 3.97 µM (inactive). For the same compound, the GI50 [13] was 4.25 µM, the GI50 [14] was 9.12 µM (inactive) and the GI50 [17] was 4.2 µM (inactive). For the same compound, the GI50 [18] was 8.95 µM (inactive), the GI50 [19] was 4.47 µM (inactive) and the GI50 [56] was 7.8 µM (inactive). The GI50 [20] was > 25 µM (inactive), the GI50 [21] was 4.98 µM (inactive) and the GI50 [22] was 4.58 µM (inactive). The GI50 [23] was > 25 µM (inactive), the GI50 [24] was 5.11 µM (inactive) and the GI50 [25] was 6.68 µM (inactive). The GI50 [26] was 11.6 µM (inactive), the GI50 [27] was 11.9 µM (inactive) and the GI50 [28] was 6.38 µM (inactive). The GI50 [29] was > 25 µM (inactive), the GI50 [30] was 4.8 µM (inactive) and the GI50 [31] was 5.02 µM (inactive). For the same compound, the GI50 [33] was 5.87 µM (inactive), the GI50 [57] was 4.14 µM (inactive) and the GI50 [34] was 2.94 µM (inactive). The GI50 [35] was 4.91 µM (inactive), the GI50 [36] was 4.6 µM (inactive) and the GI50 [37] was 8.53 µM (inactive). For the same compound, the GI50 [38] was 3.75 µM (inactive), the GI50 [39] was 6.24 µM (inactive) and the GI50 [40] was > 25 µM (inactive). For the same compound, the GI50 [41] was 14.2 µM (inactive), the GI50 [42] was 4.93 µM (inactive) and the GI50 [43] was 7.33 µM (inactive). The GI50 [44] was 4.53 µM (inactive), the GI50 [45] was > 25 µM (inactive) and the GI50 [46] was 5.62 µM (inactive). For the same compound, the GI50 [47] was 4.93 µM (inactive), the GI50 [48] was > 25 µM (inactive) and the GI50 [49] was 6.1 µM (inactive). For the same compound, the GI50 [50] was 6.34 µM (inactive), the GI50 [51] was 8.49 µM (inactive) and the GI50 [52] was 5.31 µM (inactive). For the same compound, the GI50 [53] was 4.72 µM (inactive), the GI50 [54] was 4.02 µM (inactive) and the GI50 [55] was 9.64 µM (inactive).
